According to US4952408A, “Liposome-encapsulated vinca alkaloids and their use in combatting tumors” (priority 1988, dated 1990):
Values after ≈ are worked out from the molar mass of the structure shown. Where two headings read alike, the source gives them in different places.

Columns and labels:
[1] = tissue drug levels of free and liposomal vincristine (radioimmunoassay); format: in vivo, CD2 F1 mice; details: for concentration at 5 min / concentration at 0.25 h / concentration at 0.5 h / concentration at 1 h / concentration at 2 h / concentration at 4 h / concentration at 8 h / concentration at 24 h: mouse, iv, 1 mg/kg; for concentration at 0.25 h: 15'; for concentration at 0.5 h: 30'
Protocol: (§1) CD2 F1 mice were administered vincristine as a free drug at a dose of 1 mg kg^-1 and liposomal entrapped vincristine at a dose of 1 mg kg^-1 and 5 mg kg^-1 via a lateral tail vein. At sequential time points, four mice in each treatment group were sacrificed and specific tissues were isolated and assayed for drug levels by radioimmunoassay as adapted in our laboratories.

L1210 Leukemia = assay: antitumor evaluation against L1210 leukemia in mice; format: in vivo, CD2 F1 mice; details: for % ILS (percentage of increase in life span) / Long Term Survivors (50 days) / Median Survival: single dose
Protocol: The L1210 leukemia was maintained by serial passage i.p. in DBA/2F1 female mice. For antitumor studies, 2×10^5 cells of L1210 leukemia were implanted i.p. in CD2 F1 male mice (22-25 g). […] Each drug treated group and saline treated leukemic control group was composed of eight mice. […] Data are expressed as % of ILS (percentage of increase in life span). Median life spans were calculated from grouped median survival times and % of increase in life was calculated as: [formula] Experiments were terminated on day 50. Mice alive on that day were termed "cures" and were included in the calculation of median survival time of treated mice. The saline treated or blank liposomes treated controls had the median survival of 11 days. Free vincristine at a dose of 2 mg kg^-1 provided a median survival of 14.5 days with a % ILS of 32 with 2/8 long-term survivals. […] In contrast, the doses of vincristine entrapped in liposomes provided a much higher therapeutic response in mice bearing L1210 leukemia. […] In addition, higher doses of vincristine administered in liposomes produced significant therapeutic response with majority of leukemia bearing mice surviving at day 50.
CD2 F1 mice were implanted intraperitoneally with 2 ×
10^5 leukemia cells and drug treatment was given intravenously on day

[2] = system: non-Hodgkin's and Hodgkins lymphomas, acute lymphoblastic leukemia, Wilm's tumor, rhabdomyosarcoma, and neuroblastoma; details: in vivo; cited from earlier work
[3] = lethal toxicity in normal mice after single i.v. injection; format: in vivo, CD2 F1 mice
L1210 Leukemia cells = assay: in vitro cytotoxicity against L1210 leukemia cells (trypan blue exclusion); format: cell-based; details: Mus musculus; L1210 murine leukemia cells; 24 h treatment at 37° C., counted at 48 and 72 hours
Protocol: L1210 Leukemia cells were grown in suspension in air with 5% CO2 in RPMI Medium 1640 supplemented with 10% fetal calf serum and gentamicin (50 μg/ml). Log phase cells (10 ml) at an innoculum of 1×10^5 cells/ml of medium in 25 cm^2 plastic flasks were treated with either free vincristine or liposomal entrapped vincristine at different doses for 24 hours at 37° C. After drug treatment, cells were transferred to Falcon tubes and centrifuged for 10 minutes at 600 rpm. The supernatant media were discarded and the cell pellet was washed 3 times with RPMI Media 1640. The final cell pellet was resuspended in 10 ml of RPMI media and transferred to 25 cm^2 plastic flasks and incubated at 37° C. in air with 5% CO2 for growth. At 48 and 72 hours, an aliquot of cells from each flask were taken and were counted for viability by trypan blue exclusion under microscope. The number of cells proliferating in each flask were determined with respect to control. FIG. 3 represents the percent survival of cells when treated with free vincristine or vincristine entrapped in liposomes.

[4] = plasma pharmacokinetics of free and liposomal vincristine (radioimmunoassay); format: in vivo, CD2 F1 mice
Protocol: as §1

[5] = total doses in excess of 2 mg; cited from earlier work
[6] = brain, brain, 1.0 mg, read-out: vincristine level, brain
[7] = kidney, kidney, 1.0 mg, read-out: vincristine level, kidney
[8] = liver, liver, 1.0 mg, read-out: vincristine level, liver
[9] = lung, lung, 1.0 mg, read-out: vincristine level, lung
[10] = spleen, spleen, 1.0 mg, read-out: vincristine level, spleen

CC[C@]1(O)C[C@H]2CN(CCc3c([nH]c4ccccc34)[C@@](C(=O)OC)(c3cc4c(cc3OC)N(C=O)[C@H]3[C@@](O)(C(=O)OC)[C@H](OC(C)=O)[C@]5(CC)C=CCN6CC[C@]43[C@@H]65)C2)C1 [free vincristine, vincristine]
levels of drug in brain, free compared with liposomal vincristine ([1]; brain, 1 or 5 mg kg^-1 liposomal): higher than liposomal vincristine
drug level in liver ([1]; liver, 1 mg kg^-1, 8 hours): undetectable
levels in lung, free compared with liposomal vincristine ([1]; lung, 1 mg kg^-1, different periods): comparable
concentration at 5 min [1, 6]: 28 ng/g
concentration at 0.25 h [1, 6]: 21 ng/g
concentration at 0.5 h [1, 6]: 20 ng/g
concentration at 1 h [1, 6]: 21 ng/g
concentration at 2 h ([1]; brain, brain, 1.0 mg, 2h, read-out: vincristine level, brain): 21 ng/g
concentration at 4 h [1, 6]: 29 ng/g
concentration at 8 h [1, 6]: 29 ng/g
concentration at 24 h [1, 6]: 19 ng/g
concentration at 5 min [1, 7]: 65 ng/g
concentration at 0.25 h [1, 7]: 64 ng/g
concentration at 0.5 h [1, 7]: 62 ng/g
concentration at 1 h [1, 7]: 47 ng/g
concentration at 2 h ([1]; kidney, kidney, 1.0 mg, 2h, read-out: vincristine level, kidney): 47 ng/g
concentration at 4 h [1, 7]: 20 ng/g
concentration at 8 h [1, 7]: 18 ng/g
concentration at 24 h [1, 7]: 2 ng/g
concentration at 2 h ([1]; liver, liver, 1 mg kg^-1, 2 hours, read-out: drug level in liver): 50 ng/g
concentration at 5 min [1, 8]: 200 ng/g
concentration at 0.25 h [1, 8]: 161 ng/g
concentration at 0.5 h [1, 8]: 121 ng/g
concentration at 1 h [1, 8]: 84 ng/g
concentration at 2 h ([1]; liver, liver, 1.0 mg, 2h, read-out: vincristine level, liver): 47 ng/g
concentration at 4 h [1, 8]: 10 ng/g
concentration at 5 min [1, 9]: 80 ng/g
concentration at 0.25 h [1, 9]: 78 ng/g
concentration at 0.5 h [1, 9]: 80 ng/g
concentration at 1 h [1, 9]: 75 ng/g
concentration at 2 h ([1]; lung, lung, 1.0 mg, 2h, read-out: vincristine level, lung): 77 ng/g
concentration at 4 h [1, 9]: 64 ng/g
concentration at 8 h [1, 9]: 58 ng/g
concentration at 24 h [1, 9]: 4 ng/g
concentration at 5 min [1, 10]: 83 ng/g
concentration at 0.25 h [1, 10]: 84 ng/g
concentration at 0.5 h [1, 10]: 72 ng/g
concentration at 1 h [1, 10]: 86 ng/g
concentration at 2 h ([1]; spleen, spleen, 1.0 mg, 2h, read-out: vincristine level, spleen): 112 ng/g
concentration at 4 h [1, 10]: 112 ng/g
concentration at 8 h [1, 10]: 61 ng/g
concentration at 24 h [1, 10]: 43 ng/g
% ILS (percentage of increase in life span) (L1210 Leukemia; 2.0 mg/kg i.v.): 32%
Long Term Survivors (50 days) (L1210 Leukemia; 2.0 mg/kg i.v.): 2/8
Median Survival (L1210 Leukemia; 2.0 mg/kg i.v.): 14.5 days
death of tumor bearing mice (drug toxicity) (L1210 Leukemia; 3 mg kg^-1 i.v.): All the animals in this group were dead by day 10
% ILS (percentage of increase in life span) (L1210 Leukemia; 3.0 mg/kg i.v.): -32%
Long Term Survivors (50 days) (L1210 Leukemia; 3.0 mg/kg i.v.): 0/8
Median Survival (L1210 Leukemia; 3.0 mg/kg i.v.): 7.5 days
antitumor activity [2]: substantial activity
lethality ([3]; 2 mg kg^-1 i.v., to day 60): without any lethality
mortality at 192 h ([3]; mouse, in vivo, iv, 3 mg kg^-1 i.v., read-out: mice dead by day 8): 90%
IC50 (L1210 Leukemia cells): 4 ng/mL (≈ 4.85 nM)
apparent volume of distribution ([4]; i.v.): apparent large volume of distribution
clearance of drug from plasma ([4]; i.v.): much faster clearance of drug from plasma
concentration at 5 min ([4]; mouse, iv, 1 mg/kg, plasma, 1.0 mg, 5', read-out: plasma level): 630 ng/mL
concentration at 0.25 h ([4]; mouse, iv, 1 mg/kg, plasma, 1.0 mg, 15', read-out: plasma level): 600 ng/mL
concentration at 0.5 h ([4]; mouse, iv, 1 mg/kg, plasma, 1.0 mg, 30', read-out: plasma level): 200 ng/mL
concentration at 1 h ([4]; mouse, iv, 1 mg/kg, plasma, 1.0 mg, 1h, read-out: plasma level): 100 ng/mL
concentration at 2 h ([4]; mouse, iv, 1 mg/kg, plasma, 1.0 mg, 2h, read-out: plasma level): 50 ng/mL
Cmax at 5 min ([4]; mouse, plasma, iv, 1 mg kg^-1 i.v., 5 minutes, read-out: peak plasma level at 5 minutes): 620 ng/mL
neurotoxicity [5]: often associated with a progressive and disabling neurotoxicity
